Assay [1] has as its target Ribosomal protein S6 kinase alpha-5 (Homo sapiens, UniProt O75582). Description: Inhibition of MSK1 assessed as [33P] incorporation by scintillation proximity assay. (In general: SPA uses beads or plates that emit light when radiolabelled molecules are held near them.)
Assay [2] addresses MAP kinase-activated protein kinase 2 (Homo sapiens, UniProt P49137). Description: Inhibition of MAPKAPK2 assessed as [33P] incorporation by scintillation proximity assay.

Sequence of MAP kinase-activated protein kinase 2 (P49137 whole entry): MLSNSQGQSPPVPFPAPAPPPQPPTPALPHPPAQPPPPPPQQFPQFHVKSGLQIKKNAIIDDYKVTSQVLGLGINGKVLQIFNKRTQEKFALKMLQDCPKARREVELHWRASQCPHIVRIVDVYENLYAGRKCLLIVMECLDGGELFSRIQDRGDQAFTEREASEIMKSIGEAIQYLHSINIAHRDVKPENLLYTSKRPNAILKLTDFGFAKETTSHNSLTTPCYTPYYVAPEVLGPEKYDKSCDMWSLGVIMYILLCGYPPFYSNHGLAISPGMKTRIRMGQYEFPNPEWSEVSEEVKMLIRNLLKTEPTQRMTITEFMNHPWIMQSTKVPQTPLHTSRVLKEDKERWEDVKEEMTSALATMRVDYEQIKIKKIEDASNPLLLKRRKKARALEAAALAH
Sequence of Ribosomal protein S6 kinase alpha-5 (O75582 whole entry): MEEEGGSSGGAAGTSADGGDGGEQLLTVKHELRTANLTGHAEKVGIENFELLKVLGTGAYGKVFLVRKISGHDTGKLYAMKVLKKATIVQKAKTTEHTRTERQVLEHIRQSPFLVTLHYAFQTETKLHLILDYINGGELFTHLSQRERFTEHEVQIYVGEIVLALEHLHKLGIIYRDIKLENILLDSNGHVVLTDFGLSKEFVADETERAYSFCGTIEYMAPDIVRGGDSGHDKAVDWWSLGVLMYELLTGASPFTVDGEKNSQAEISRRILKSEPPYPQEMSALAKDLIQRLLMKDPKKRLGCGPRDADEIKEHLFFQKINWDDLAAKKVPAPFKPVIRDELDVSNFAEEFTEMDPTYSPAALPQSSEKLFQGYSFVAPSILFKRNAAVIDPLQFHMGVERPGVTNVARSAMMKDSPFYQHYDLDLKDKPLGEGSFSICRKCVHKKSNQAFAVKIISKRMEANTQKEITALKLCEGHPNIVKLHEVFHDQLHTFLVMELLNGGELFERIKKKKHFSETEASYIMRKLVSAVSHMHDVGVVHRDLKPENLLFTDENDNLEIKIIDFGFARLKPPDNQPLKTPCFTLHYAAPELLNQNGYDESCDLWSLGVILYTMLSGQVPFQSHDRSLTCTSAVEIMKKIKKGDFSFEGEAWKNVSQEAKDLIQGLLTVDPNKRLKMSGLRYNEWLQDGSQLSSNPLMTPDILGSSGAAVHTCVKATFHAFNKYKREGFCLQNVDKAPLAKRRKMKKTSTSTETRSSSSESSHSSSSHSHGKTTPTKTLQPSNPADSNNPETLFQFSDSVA

As for `C=C1CC[C@H]2[C@@](C)(CC[C@H]3C(C)(C)CCC[C@]23C)[C@@H]1CC1OC(=O)C=C1CO` (stereo partly drawn), the IC50 – broadly, the midpoint of a concentration-inhibition curve – is 4 µM in assay [1] and 90 µM in assay [2].
Turning to `CC1(C)CCC[C@]2(C)[C@H]3CC[C@]4(C)O[C@@H](C5=CC(=O)OC5O)C[C@H]4[C@]3(C)CC[C@@H]12` (mixture of isomers), the IC50 in assay [1] is 4 µM; in assay [2] it was 90 µM.
For the compound `C=C1CC[C@H]2[C@@](C)(CC[C@H]3C(C)(C)CCC[C@]23C)[C@@H]1CC(O)C1=CC(=O)OC1O` (mixture of isomers), the IC50 in assay [1] is 4 µM; in assay [2], 90 µM.
For `C=C1CC[C@H]2[C@@](C)(CC[C@H]3C(C)(C)CCC[C@]23C)[C@@H]1/C=C/C1=CC(=O)OC1O` (mixture of isomers), in that order: 4 µM and 90 µM.

The values above are taken from ChEMBL document CHEMBL1150565, “Cheilanthane sesterterpenes, protein kinase inhibitors, from a marine sponge of the genus Ircinia” (J Nat Prod, 2001).
